# Laboratory results published in paper PMC12111564, “Extended Family of Thiophosphoryl-Appended Pd(II) Pincer Complexes with a Deprotonated Amide Core: Synthesis and Biological Evaluation” (International Journal of Molecular Sciences, 2025).
# Columns and labels:
# glioblastoma (U251) = experiment: MTT cytotoxicity assay, U251; format: cell-based, human
# Procedure: (§1) The cytotoxic activity of the complexes obtained was screened against several human solid and hematopoietic cancer cell lines using the conventional MTT assay. To evaluate their selectivity for cancerous over non-cancerous cells, analogous tests were performed with pseudonormal human embryonic kidney (HEK293) and breast epithelial (HBL100) cell lines.
# (§2) The cytotoxicity of the compounds obtained was investigated on human colorectal carcinoma (HCT116), breast cancer (MCF7), prostate adenocarcinoma (PC3), glioblastoma (U251), ovarian adenocarcinoma (Scov3), chronic myelogenous leukemia (K562 and K562/iS9), multiple plasmacytoma (AMO1), and acute lymphoblastic leukemia (H9) cell lines, as well as human embryonic kidney (HEK293) and mammary epithelial (HBL100 and HBL100/Dox) cells used as non-cancerous cell lineages. All the cell lines were obtained from American Type Culture Collection (ATCC). The tested compounds were initially dissolved in DMSO. Cisplatin was obtained from a commercial source (as an infusion concentrate in natural saline solution). The experiments were performed using the conventional MTT assay (ICN Biomedicals, Eschwege, Germany) according to the previously published procedure.
# [1] = test system: human colorectal carcinoma (HCT116); set-up: method as in PMID 37818804; details: MTT; read-out: IC50 ± SD, HCT116; cited from earlier work
# [2] = test system: chronic myelogenous leukemia (K562); set-up: method as in PMID 37818804; details: MTT; read-out: IC50 ± SD, K562; cited from earlier work
# [3] = test system: doxorubicin-resistant mammary epithelial cells HBL100/Dox; details: MTT; read-out: IC50 ± SD, HBL100/Dox; cited from earlier work
# breast cancer (MCF7) = test system: breast cancer (MCF7); set-up: method as in PMID 37818804; details: MTT; read-out: IC50 ± SD, MCF7; cited from earlier work
# [4] = test system: ovarian adenocarcinoma (Scov3); experiment: MTT cytotoxicity assay, Scov3; format: cell-based, human
# Procedure: as §1, §2
# [5] = test system: human embryonic kidney (HEK293); set-up: method as in PMID 37818804; details: MTT; read-out: IC50 ± SD, HEK293; cited from earlier work
# [6] = test system: mammary epithelial cells HBL100; set-up: method as in PMID 37818804; details: MTT; read-out: IC50 ± SD, HBL100; cited from earlier work
# [7] = test system: doxorubicin-resistant subline of chronic myelogenous leukemia cells (K562/iS9); details: MTT; read-out: IC50 ± SD, K562/iS9; cited from earlier work
# [8] = test system: multiple plasmacytoma (AMO1); set-up: method as in PMID 37818804; details: MTT; read-out: IC50 ± SD, AMO1; cited from earlier work
# [9] = test system: prostate adenocarcinoma (PC3); set-up: method as in PMID 37818804; details: MTT; read-out: IC50 ± SD, PC3; cited from earlier work
# [10] = test system: acute lymphoblastic leukemia (H9); set-up: method as in PMID 37818804; details: MTT; read-out: IC50 ± SD, H9; cited from earlier work
structure (smiles),measurement,setting,value
O=C1c2cccc[n+]2[Pd-2]2([Cl])[S+]=P(c3ccccc3)(c3ccccc3)C(c3ccccc3)[N]12 (racemic) [Ia],IC50,glioblastoma (U251),34 ± 4 µM
same,IC50,[1],3 ± 0.5 µM
same,IC50,[2],7.4 ± 0.4 µM
same,IC50,[3],34 ± 4 µM
same,IC50,breast cancer (MCF7),10 ± 2.5 µM
same,IC50,[4],30 ± 2 µM
same,IC50,[5],6.2 ± 0.5 µM
same,IC50,[6],16 ± 0.5 µM
same,IC50,[7],5.8 ± 1.2 µM
same,IC50,[8],2.4 ± 0.3 µM
same,IC50,[9],4 ± 0.4 µM
same,IC50,[10],3.2 ± 0.4 µM
